In patent publication US20230107642A1 (Erasca, Inc., priority 2020, published 2023):

molecular target: T1, Cys12 of the KRAS 4B G12C protein (Homo sapiens, UniProt P01116, G12C); assay: In vitro covalent adduct formation (CAF) assay, LC-MS intact mass; type: binding; details: 10 uM compound, 60 min
T1 construct: This protein contained 188 amino acids in total, including an N-terminal 6-Histidine tag; made in house; host or cells: E. coli BL21
Summary of the method: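 Percent covalent modification from intact-mass LC-MS, by relative free versus adducted protein (adducts within 1 Da of expected mass). Reaction: 10 μM compound with 5 μM E. coli-expressed, GDP-exchanged KRAS 4B G12C in TBS pH 7.4, 4% DMSO, 1 h at 22° C.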

| Compound | % CAF 10 uM @ 60 min [%] |
| --- | --- |
| [2H]C([2H])=C([2H])C(=O)N1[C@H](C)CN(c2nc(=O)n3c4c(c(-c5ccc(F)cc5)c(C(F)(F)F)cc24)SC[C@@H]3COC)C[C@@H]1C [Example 1366] | 96.8 |
| C=CC(=O)N1[C@H](C)CN(c2nc(=O)n3c4c(c(-c5ccc(F)c(Cl)c5)c(C(F)(F)F)cc24)SCC2(COC2)C3)C[C@@H]1C [Example 1353, 8′-((3S,5R)-4-acryloyl-3,5-dimethylpiperazin-1-yl)-11′-(3-chloro-4-fluorophenyl)-10′-(trifluoromethyl)-2′H,4′H,6′H-spiro[oxetane-3,3′-[1,4]thiazepino[2,3,4-ij]quinazolin]-6′-one] | 96.4 |
| C=CC(=O)N1[C@H](C)CN(c2nc(=O)n3c4c(c(-c5ccc(F)c6cnn(C)c56)c(C(F)(F)F)cc24)SC[C@@H]3COC)C[C@@H]1C (atropisomer, axis not shown) [Example 1366a, (3S,10S)-7-((3S,5R)-4-acryloyl-3,5-dimethylpiperazin-1-yl)-10-(4-fluoro-1-methyl-1H-indazol-7-yl)-3-(methoxymethyl)-9-(trifluoromethyl)-2,3-dihydro-5H-[1,4]thiazino[2,3,4-ij]quinazolin-5-one] | 46.8 |
| C=CC(=O)N1[C@H](C)CN(c2nc(=O)n3c4c(c(-c5ccc(F)cc5)c(C(F)(F)F)cc24)SC[C@@H]3C)C[C@@H]1C [Example 1419, (S)-7-((3S,5R)-4-acryloyl-3,5-dimethylpiperazin-1-yl)-10-(4-fluorophenyl)-3-methyl-9-(trifluoromethyl)-2H-[1,4]thiazino[2,3,4-ij]quinazolin-5(3H)-one] | 95.7 |
| C=CC(=O)N1[C@H](C)CN(c2nc(=O)n3c4c(c(-c5ccc(F)cc5)c(C(F)(F)F)cc24)SC[C@@H](CO)C3)C[C@@H]1C [Example 1398, (R)-8-((3S,5R)-4-acryloyl-3,5-dimethylpiperazin-1-yl)-11-(4-fluorophenyl)-3-(hydroxymethyl)-10-(trifluoromethyl)-3,4-dihydro-2H,6H-[1,4]thiazepino[2,3,4-ij]quinazolin-6-one] | 44.2 |
| C=CC(=O)N1CCN(c2nc(=O)n3c4c(c(-c5ccc(F)c(Cl)c5)c(C(F)(F)F)cc24)SCC2(COC2)C3)CC1 [Example 1357, 8-(4-acryloylpiperazin-1-yl)-11-(3-chloro-4-fluorophenyl)-10-(trifluoromethyl)-2H-spiro[[1,4]thiazepino[2,3,4-ij]quinazoline-3,3′-oxetan]-6(4H)-one] | 92.4 |
| C=CC(=O)N1C2CCC1CN(c1nc(=O)n3c4c(c(-c5cc(Cl)c(F)cc5F)c(C(F)(F)F)cc14)SC[C@@H]3COC)C2 [Example 1394, (3S,10R)-7-((1R,5S)-8-acryloyl-3,8-diazabicyclo[3.2.1]octan-3-yl)-10-(5-chloro-2,4-difluorophenyl)-3-(methoxymethyl)-9-(trifluoromethyl)-2,3-dihydro-5H-[1,4]thiazino[2,3,4-ij]quinazolin-5-one] | 93.5 |
| C=CC(=O)N1CCN(c2nc(=O)n3c4c(c(-c5ccc(F)c(Cl)c5)c(C(F)(F)F)cc24)SC[C@@H]3COC)CC1 [Example 1345, (S)-7-(4-acryloylpiperazin-1-yl)-10-(3-chloro-4-fluorophenyl)-3-(methoxymethyl)-9-(trifluoromethyl)-2,3-dihydro-5H-[1,4]thiazino[2,3,4-ij]quinazolin-5-one] | 90 |
| C=CC(=O)N1[C@@H]2CC[C@H]1CN(c1nc(=O)n3c4c(c(-c5cc(Cl)c(F)cc5F)c(C(F)(F)F)cc14)SC[C@@H]3CN1CCN(CC)CC1)C2 [Example 1403, (3S)-7-((1R,5S)-8-acryloyl-3,8-diazabicyclo[3.2.1]octan-3-yl)-10-(5-chloro-2,4-difluorophenyl)-3-((4-ethylpiperazin-1-yl)methyl)-9-(trifluoromethyl)-2,3-dihydro-5H-[1,4]thiazino[2,3,4-ij]quinazolin-5-one] | 80.3 |
| C=CC(=O)N1C[C@H](C)N(c2nc(=O)n3c4c(c(-c5ccc(F)c(Cl)c5)c(C(F)(F)F)cc24)SC[C@@H]3CN2CCN(C3CC3)CC2)C[C@H]1C [Example 1387, (S)-7-((2S,5R)-4-acryloyl-2,5-dimethylpiperazin-1-yl)-10-(3-chloro-4-fluorophenyl)-3-((4-cyclopropylpiperazin-1-yl)methyl)-9-(trifluoromethyl)-2,3-dihydro-5H-[1,4]thiazino[2,3,4-ij]quinazolin-5-one] | 71 |

Continued, values first:

| % CAF 10 uM @ 60 min [%] | Compound |
| --- | --- |
| 90 | C=CC(=O)N1[C@H](C)CN(c2nc(=O)n3c4c(c(-c5cc(O)c(F)cc5F)c(C(F)(F)F)cc24)SC[C@@H]3COC)C[C@@H]1C [Example 1444, (3S)-7-((3S,5R)-4-acryloyl-3,5-dimethylpiperazin-1-yl)-10-(2,4-difluoro-5-hydroxyphenyl)-3-(methoxymethyl)-9-(trifluoromethyl)-2,3-dihydro-5H-[1,4]thiazino[2,3,4-ij]quinazolin-5-one] |
| 79 | C=CC(=O)N1[C@H](C)CN(c2nc(=O)n3c4c(c(-c5ccc(F)cc5F)c(C(F)(F)F)cc24)SC[C@@H]3CN2CC[C@H](F)C2)C[C@@H]1C (atropisomer, axis not shown) [Example 1429, (3S,10R)-7-((3S,5R)-4-acryloyl-3,5-dimethylpiperazin-1-yl)-10-(2,4-difluorophenyl)-3-(((S)-3-fluoropyrrolidin-1-yl)methyl)-9-(trifluoromethyl)-2,3-dihydro-5H-[1,4]thiazino[2,3,4-ij]quinazolin-5-one] |
| 83.7 | C=CC(=O)N1CCN(c2nc(=O)n3c4c(c(-c5cc(Cl)c(F)cc5F)c(C(F)(F)F)cc24)SC[C@@H]3COCOC)CC1 (atropisomer, axis not shown) [Example 1365] |
| 89.4 | C=CC(=O)N1[C@H](C)CN(c2nc(=O)n3c4c(c(-c5cc(Cl)c(F)cc5F)c(C(F)(F)F)cc24)SC[C@@H]3CN2CCN(CC)CC2)C[C@@H]1C (atropisomer, axis not shown) [Example 1340, (3S,10S)-7-((3S,5R)-4-acryloyl-3,5-dimethylpiperazin-1-yl)-10-(5-chloro-2,4-difluorophenyl)-3-((4-ethylpiperazin-1-yl)methyl)-9-(trifluoromethyl)-2,3-dihydro-5H-[1,4]thiazino[2,3,4-ij]quinazolin-5-one] |
| 87 | C=CC(=O)N1C[C@H](C)N(c2nc(=O)n3c4c(c(-c5cc(Cl)c(F)cc5F)c(C(F)(F)F)cc24)SC[C@@H]3CN2C[C@@H]3C[C@H]2CO3)C[C@H]1C [Example 1304] |
| 44.1 | C=CC(=O)N1CCN(c2nc(=O)n3c4c(c(-c5cc(Cl)c(F)cc5F)c(C(F)(F)F)cc24)SC[C@@H]3CN2C[C@@H]3C[C@H]2CO3)CC1 (atropisomer, axis not shown) [Example 1342, (3S,10S)-3-(((1S,4S)-2-oxa-5-azabicyclo[2.2.1]heptan-5-yl)methyl)-7-(4-acryloylpiperazin-1-yl)-10-(5-chloro-2,4-difluorophenyl)-9-(trifluoromethyl)-2,3-dihydro-5H-[1,4]thiazino[2,3,4-ij]quinazolin-5-one] |

same assay, conditions: 10 uM compound, 60 min incubation

| % CAF 10 uM @ 60 min [%] | Compound |
| --- | --- |
| 74.3 | C=CC(=O)N1C[C@H](C)N(c2nc(=O)n3c4c(c(-c5cc(Cl)c(F)cc5F)c(C(F)(F)F)cc24)SCC2(COC2)C3)C[C@H]1C [Example 1122, 8′-((2S,5R)-4-acryloyl-2,5-dimethylpiperazin-1-yl)-11′-(5-chloro-2,4-difluorophenyl)-10′-(trifluoromethyl)-2′H,4′H,6′H-spiro[oxetane-3,3′-[1,4]thiazepino [2,3,4-ij]quinazolin]-6′-one] |

same assay, conditions: 10 μM compound, after 1 hour

| CAF (% after 1 hour) [%] | Compound |
| --- | --- |
| 95 | C=CC(=O)N1[C@H](C)CN(c2nc(=O)n3c4c(c(-c5ccc(F)c(Cl)c5)c(C(F)(F)F)cc24)SC[C@@H](OCC)C3)C[C@@H]1C [Example 1204, (S)-8-((3S,5R)-4-acryloyl-3,5-dimethylpiperazin-1-yl)-11-(3-chloro-4-fluorophenyl)-3-ethoxy-10-(trifluoromethyl)-3,4-dihydro-2H,6H-[1,4]thiazepino[2,3,4-ij]quinazolin-6-one] |
| 95 | C=CC(=O)N1[C@H](C)CN(c2nc(=O)n3c4c(c(-c5ncc(F)cc5F)c(C(F)(F)F)cc24)SC[C@@H](OC)C3)C[C@@H]1C [Example 1225, (3S)-8-((3S,5R)-4-Acryloyl-3,5-dimethylpiperazin-1-yl)-11-(3,5-difluoropyridin-2-yl)-3-methoxy-10-(trifluoromethyl)-3,4-dihydro-2H,6H-[1,4]thiazepino[2,3,4-ij]quinazolin-6-one] |

same assay, conditions: after 60 min

| CAF (% binding after 60 min) [%] | Compound |
| --- | --- |
| 97 | C=CC(=O)N1[C@H](C)CN(c2nc(=O)n3c4c(c(-c5cc(Cl)c(F)cc5F)c(C(F)(F)F)cc24)SC[C@@H](OCCN(C)C)C3)C[C@@H]1C [Example 1036, (3S)-8-((3S,5R)-4-acryloyl-3,5-dimethylpiperazin-1-yl)-11-(5-chloro-2,4-difluorophenyl)-3-(2-(dimethylamino)ethoxy)-10-(trifluoromethyl)-3,4-dihydro-2H,6H-[1,4]thiazepino[2,3,4-ij]quinazolin-6-one] |
| 96 | C=CC(=O)N1[C@H](C)CN(c2nc(=O)n3c4c(c(-c5ccc(F)cc5)c(C(F)(F)F)cc24)SC[C@@H](OCCN(C)C)C3)C[C@@H]1C [Example 1033, (S)-8-((3S,5R)-4-acryloyl-3,5-dimethylpiperazin-1-yl)-3-(2-(dimethylamino)ethoxy)-11-(4-fluorophenyl)-10-(trifluoromethyl)-3,4-dihydro-2H,6H-[1,4]thiazepino[2,3,4-ij]quinazolin-6-one] |
| 97 | C=CC(=O)N1[C@H](C)CN(c2nc(=O)n3c4c(c(-c5ccc(F)cc5)c(C(F)(F)F)cc24)SC[C@H](OCCOC)C3)C[C@@H]1C [Example 1024, (R)-8-((3S,5R)-4-acryloyl-3,5-dimethylpiperazin-1-yl)-11-(4-fluorophenyl)-3-(2-methoxyethoxy)-10-(trifluoromethyl)-3,4-dihydro-2H,6H-[1,4]thiazepino[2,3,4-ij]quinazolin-6-one] |
